Test results taken from US6734139B1, “N-aryl-uracile-based herbicides” (priority 1999, dated 2004).
Where “and” joins values, the source holds several entries; their conditions need not be identical. Identical values can stand only once. Values belong to the compound of their own block, whether it stands above or below them.

How the values were obtained:
Type in all cases: in vivo
Digitaria = test: Pre-emergence test (herbicidal action, Colby): Digitaria
Abutilon [1] = test: Pre-emergence test (herbicidal action, Colby): Abutilon
Stellaria = test: Pre-emergence test (herbicidal action, Colby): Stellaria
Ipomoea = test: Pre-emergence test (herbicidal action, Colby): Ipomoea
Viola = test: Pre-emergence test (herbicidal action, Colby): Viola
maize = test: Pre-emergence test in maize (crop plant compatibility); settings: for Average damage (%): maize, pre-emergence, 0.1% Renex-36
Description: (§1) Solvent: 2 to 3 parts by weight of acetone or N,N-dimethyl-formamide
(§2) Emulsifier: 1 part by weight of alkylaryl polyglycol ether
(§3) To produce a suitable preparation of active compound, 1 part by weight of active compound is mixed with the stated amount of solvent, the stated amount of emulsifier is added and the concentrate is diluted with water to the desired concentration. Formulated products are dissolved in water and then diluted with water to the desired concentration.
(§4) The solutions of the other mixing components (active compounds or safeners) are prepared analogously. The separately prepared solutions of the various mixing components are then combined and, if appropriate, additional substances (formulation auxiliaries, additives, etc.) are added and, if appropriate, water is added to prepare the desired dilution.
(§5) Seeds of the test plants are sown in standard soil. After 24 hours, the soil is sprayed with the preparation of active compound such that the particular amount of active compound desired in each case is applied per unit area. The concentration of active compound in the spray liquor is chosen such that the particular amount of active compound desired in each case is applied in 500 litres of water per hectare. The containers with the test plants are kept in a greenhouse at controlled temperature and controlled illumination until evaluation.
(§6) 0%=no effect/no damage (like untreated control)

Veronica = test: Post-emergence test (herbicidal action, Colby): Veronica
Source text: (§7) The expected action for a given combination of two herbicides can be calculated as follows (cf. COLBY, S. R.: “Calculating synergistic and antagonistic responses of herbicide combinations”, Weeds 15, Pages 20-22, 1967):
(§8) If the actual damage exceeds the calculated value, the combination has a superadditive effect, that is to say a synergistic effect.
as §3, §4
(§9) After three weeks, the degree of damage to the plants is rated in % damage in comparison to the development of the untreated control. The figures denote
as §6

Solanum = test: Post-emergence test (herbicidal action, Colby): Solanum
Source text: as §7, §8, §3, §4, §9, §6

weeds = test: Pre-emergence test (herbicidal action against weeds, Colby)
Source text: as §7, §8
The theoretically expected activity for a given combination of three herbicides can likewise be found in the literature mentioned above.
as §1, §2, §3, §4, §5, §9, §6

Datura [2] = test: Post-emergence test (herbicidal action, Colby): Datura
Abutilon [3] = test: Post-emergence test (herbicidal action, Colby): Abutilon
Chenopodium [4] = test: Post-emergence test (herbicidal action, Colby): Chenopodium
Matricaria [5] = test: Post-emergence test (herbicidal action, Colby): Matricaria
Polygonum [6] = test: Post-emergence test (herbicidal action, Colby): Polygonum
Alopecurus = test: Pre-emergence test (herbicidal action, Colby): Alopecurus
Cyperus = test: Pre-emergence test (herbicidal action, Colby): Cyperus
Echinochloa = test: Pre-emergence test (herbicidal action, Colby): Echinochloa
Setaria = test: Pre-emergence test (herbicidal action, Colby): Setaria
Matricaria [7] = test: Pre-emergence test (herbicidal action, Colby): Matricaria
Polygonum [8] = test: Pre-emergence test (herbicidal action, Colby): Polygonum
Datura [9] = test: Pre-emergence test (herbicidal action, Colby): Datura; settings: 4 g of a.i./ha
Chenopodium [10] = test: Pre-emergence test (herbicidal action, Colby): Chenopodium; settings: 4 g of a.i./ha
Eriochloa = test: Pre-emergence test (herbicidal action, Colby): Eriochloa
Cassia = test: Pre-emergence test (herbicidal action, Colby): Cassia; settings: 4 g of a.i./ha
Bromus = test: Pre-emergence test (herbicidal action, Colby): Bromus; settings: 4 g of a.i./ha
Galium [11] = test: Pre-emergence test (herbicidal action, Colby): Galium; settings: 8 g of a.i./ha
Lolium = test: Pre-emergence test (herbicidal action, Colby): Lolium; settings: 8 g of a.i./ha
Amaranthus = test: Post-emergence test (herbicidal action, Colby): Amaranthus; settings: 60 g of a.i./ha
Galium [12] = test: Post-emergence test (herbicidal action, Colby): Galium; settings: 60 g of a.i./ha
[13] = single active compound at 4 g of a.i./ha

Compound: CCc1cccc(C)c1N(C(=O)CCl)[C@@H](C)COC [metolachlor, (S)-2-chloro-N-(2-ethyl-6-methyl-phenyl)-N-(2-methoxy-1-methylethyl)-acetamide]
Digitaria (Digitaria; 250 g of a.i./ha): 90% | pest or weed control at 125 g/ha (Abutilon [1]; 125 g of a.i./ha): 30% | pest or weed control at 250 g/ha (Abutilon [1]; 250 g of a.i./ha): 30% | Stellaria (Stellaria; 125 g of a.i./ha): 30% | Stellaria (Stellaria; 250 g of a.i./ha): 80% | Ipomoea (Ipomoea; 250 g of a.i./ha): 30% | Viola (Viola; 125 g of a.i./ha): 50%

Maize (7 days) (maize; Table A28, 60 g of a.i./ha): 10% | Maize (12 days) (maize; Table A28, 60 g of a.i./ha): 20% | Maize (21 days) (maize; Table A28, 60 g of a.i./ha): 17% | Maize (7 days) (maize; Table A28, 90 g of a.i./ha): 20% | Maize (21 days) (maize; Table A28, 90 g of a.i./ha): 36% | Maize (12 days) (maize; Table A29, 60 g of a.i./ha): 20% | Maize (12 days) (maize; Table A29, 90 g of a.i./ha): 30% | Maize (21 days) (maize; Table A29, 90 g of a.i./ha): 36% | Maize (7 days) (maize; Table A31, 90 g of a.i./ha): 20% | Maize (12 days) (maize; Table A31, 90 g of a.i./ha): 30% | Maize (21 days) (maize; Table A31, 90 g of a.i./ha): 29%
Compound: CCS(=O)(=O)N(C(=O)C(C)(C)C)c1cc(-n2c(=O)cc(C(F)(F)F)n(C)c2=O)c(F)cc1C#N [I-3, N-[2-cyano-4-fluoro-5-(3-methyl-2,6-dioxo-4-trifluoromethyl-3,6-dihydro-1(2H)-pyrimidinyl)-phenyl]-N-(2,2-dimethyl-propanoyl)-1-ethanesulphonamide]
Average damage (%) (maize; active compound 1 alone at 60 g of a.i./ha): 17% | Average damage (%) (maize; active compound 1 alone at 90 g of a.i./ha): 36% | Veronica (Veronica; 4 g of a.i./ha): 0% | Veronica (Veronica; 8 g of a.i./ha): 70% | damage, Veronica (Veronica; [13]): 0% | damage, Veronica (Veronica; single active compound at 8 g of a.i./ha): 70% | Solanum (Solanum; 4 g of a.i./ha): 30% | damage, Solanum (Solanum; [13]): 30% | Chenopodium (pre-emergence test) (weeds; Table 23, 4 g of a.i./ha): 80 | Galium (pre-emergence test) (weeds; Table 23, 4 g of a.i./ha): 0 | Lolium (pre-emergence test) (weeds; Table 23, 4 g of a.i./ha): 0 | Setaria (pre-emergence test) (weeds; Table 23, 4 g of a.i./ha): 0 | Eriochloa (pre-emergence test) (weeds; Table 23, 8 g of a.i./ha): 50 | Ipomoea (pre-emergence test) (weeds; Table 23, 8 g of a.i./ha): 30 | Setaria (pre-emergence test) (weeds; Table 23, 8 g of a.i./ha): 0 | Chenopodium (pre-emergence test) (weeds; Table A20, 4 g of a.i./ha): 80 | Datura (pre-emergence test) (weeds; Table A20, 4 g of a.i./ha): 0 | Ipomoea (pre-emergence test) (weeds; Table A20, 4 g of a.i./ha): 30 | Lolium (pre-emergence test) (weeds; Table A20, 4 g of a.i./ha): 0 | Datura (pre-emergence test) (weeds; Table A20, 8 g of a.i./ha): 30 | Galium (pre-emergence test) (weeds; Table A20, 8 g of a.i./ha): 20 | Ipomoea (pre-emergence test) (weeds; Table A20, 8 g of a.i./ha): 30 | Chenopodium (pre-emergence test) (weeds; Table A21, 4 g of a.i./ha): 80 | Datura (pre-emergence test) (weeds; Table A21, 4 g of a.i./ha): 0 | Polygonum (pre-emergence test) (weeds; Table A21, 4 g of a.i./ha): 40 | Ipomoea (pre-emergence test) (weeds; Table A21, 8 g of a.i./ha): 30 | Polygonum (pre-emergence test) (weeds; Table A21, 8 g of a.i./ha): 90 | Datura (pre-emergence test) (weeds; Table A22, 4 g of a.i./ha): 0 | Polygonum (pre-emergence test) (weeds; Table A22, 4 g of a.i./ha): 40 | Cassia (pre-emergence test) (weeds; Table A22, 8 g of a.i./ha): 50 | Cassia (pre-emergence test) (weeds; Table A24, 4 g of a.i./ha): 0 | Echinochloa (pre-emergence test) (weeds; Table A24, 4 g of a.i./ha): 30 | Lolium (pre-emergence test) (weeds; Table A24, 4 g of a.i./ha): 0 | Veronica (pre-emergence test) (weeds; Table A24, 4 g of a.i./ha): 30 | Echinochloa (pre-emergence test) (weeds; Table A24, 8 g of a.i./ha): 30 | Setaria (pre-emergence test) (weeds; Table A24, 8 g of a.i./ha): 30 | Bromus (pre-emergence test) (weeds; Table A25, 4 g of a.i./ha): 0 | Avena (pre-emergence test) (weeds; Table A25, 8 g of a.i./ha): 40 | Cyperus (pre-emergence test) (weeds; Table A25, 8 g of a.i./ha): 50 | Lolium (pre-emergence test) (weeds; Table A25, 8 g of a.i./ha): 60 | Avena (pre-emergence test) (weeds; Table A26, 4 g of a.i./ha): 40 | Digitaria (pre-emergence test) (weeds; Table A26, 4 g of a.i./ha): 30 | Echinochloa (pre-emergence test) (weeds; Table A26, 4 g of a.i./ha): 0 | Lolium (pre-emergence test) (weeds; Table A26, 4 g of a.i./ha): 30 | Matricaria (pre-emergence test) (weeds; Table A26, 4 g of a.i./ha): 30 | Setaria (pre-emergence test) (weeds; Table A26, 4 g of a.i./ha): 0 | Cassia (pre-emergence test) (weeds; Table A26, 8 g of a.i./ha): 30 | Echinochloa (pre-emergence test) (weeds; Table A26, 8 g of a.i./ha): 30 | Lolium (pre-emergence test) (weeds; Table A26, 8 g of a.i./ha): 30 | Matricaria (pre-emergence test) (weeds; Table A26, 8 g of a.i./ha): 70 | Setaria (pre-emergence test) (weeds; Table A26, 8 g of a.i./ha): 30 | Abutilon (pre-emergence test) (weeds; Table A27, 8 g of a.i./ha): 95 | Cassia (pre-emergence test) (weeds; Table A27, 8 g of a.i./ha): 30 | Polygonum (pre-emergence test) (weeds; Table A27, 8 g of a.i./ha): 20 | Datura (Datura [2]; 4 g of a.i./ha): 30% | Datura (Datura [2]; 8 g of a.i./ha): 60% | Abutilon (Abutilon [3]; 4 g of a.i./ha): 0% | Chenopodium (Chenopodium [4]; 4 g of a.i./ha): 0% | Matricaria (Matricaria [5]; 4 g of a.i./ha): 70% | Polygonum (Polygonum [6]; 8 g of a.i./ha): 60% | Alopecurus (Alopecurus; 4 g of a.i./ha): 0% | Alopecurus (Alopecurus; 8 g of a.i./ha): 0% | Cyperus (Cyperus; 4 g of a.i./ha): 0% | Cyperus (Cyperus; 8 g of a.i./ha): 30% | Digitaria (Digitaria; 4 g of a.i./ha): 0% | Digitaria (Digitaria; 8 g of a.i./ha): 20% | Echinochloa (Echinochloa; 4 g of a.i./ha): 0% | Echinochloa (Echinochloa; 8 g of a.i./ha): 0% | Setaria (Setaria; 4 g of a.i./ha): 0% | Setaria (Setaria; 8 g of a.i./ha): 0% | pest or weed control at 4 g/ha (Abutilon [1]; 4 g of a.i./ha): 20% | pest or weed control at 8 g/ha (Abutilon [1]; 8 g of a.i./ha): 50% | Matricaria (Matricaria [7]; 4 g of a.i./ha): 50% | Matricaria (Matricaria [7]; 8 g of a.i./ha): 90% | Polygonum (Polygonum [8]; 4 g of a.i./ha): 0% | Polygonum (Polygonum [8]; 8 g of a.i./ha): 90% | Stellaria (Stellaria; 4 g of a.i./ha): 80% | Ipomoea (Ipomoea; 4 g of a.i./ha): 30% and 50% | Ipomoea (Ipomoea; 8 g of a.i./ha): 30% | Viola (Viola; 8 g of a.i./ha): 90% | Datura (Datura [9]): 30% | Chenopodium (Chenopodium [10]): 80% | Eriochloa (Eriochloa; 4 g of a.i./ha): 30% | Eriochloa (Eriochloa; 8 g of a.i./ha): 50% | Cassia (Cassia): 40% | Bromus (Bromus): 0% | Galium (Galium [11]): 30% | Lolium (Lolium): 20%

Compound: Cc1nn(-c2cc(NS(C)(=O)=O)c(Cl)cc2Cl)c(=O)n1C(F)F [sulfentrazone, 2-(2,4-dichloro-5-methylsulphonylamino-phenyl)-4-difluoromethyl-5-methyl-2,4-dihydro-3H-1,2,4-triazol-3-one]
Veronica (Veronica; 60 g of a.i./ha): 0% | Veronica (Veronica; 125 g of a.i./ha): 20% | Solanum (Solanum; 60 g of a.i./ha): 0% | Solanum (Solanum; 125 g of a.i./ha): 0% | Amaranthus (Amaranthus): 90% | Galium (Galium [12]): 0% | Datura (Datura [2]; 60 g of a.i./ha): 0% | Datura (Datura [2]; 125 g of a.i./ha): 0% | Abutilon (Abutilon [3]; 60 g of a.i./ha): 0% | Chenopodium (Chenopodium [4]; 60 g of a.i./ha): 60% | Matricaria (Matricaria [5]; 125 g of a.i./ha): 0% | Polygonum (Polygonum [6]; 125 g of a.i./ha): 50%
